Measurements reported in patent US10471048B2, “Thienopyridine derivative for the treatment of hepatitis C infections” (Cipla (UK) Limited, priority 2015, dated 2019).
pEC50: −log10 of the molar value.

Legend:
[1] = Infectious HCVcc assay, cell viability (CytoTox-1); conditions: human, Huh7.5 cells infected with cell culture-derived HCV (HCVcc)
Description: (§1) Huh7.5 cells are grown in Dulbecco's modified essential media (DMEM), 10% fetal bovine serum (FBS), 1% penicillin-streptomycin (pen-strep), 1% Non-essential amino acids (NEAA) in a 5% CO2 incubator at 37° C. Huh7.5 cells are seeded at 1×10^4 cells per well into 96-well plates according to Southern Research Institute standard format. Test articles are serially diluted with DMEM plus 5% FBS. The diluted compound in the amount of 50 μl is mixed with equal volume of cell culture-derived HCV (HCVcc), then applied to appropriate wells in the plate. Human interferon alpha-2b (rIFNα-2b) and/or Sofosbuvir are included as a positive control. After 72 hr incubation at 37° C., the cells are lysed for measurement of luciferase activity using Renilla Luciferase Assay System (Promega) according to manufacturer's instruction. The number of cells in each well is determined by CytoTox-1 reagent (Promega).

[2] = HCV replicon assay, cell viability (CytoTox-1); conditions: human, Huh7 hepatoma cells containing a subgenomic HCV replicon
Description: We use the subgenomic HCV replicons of genotype 1a (H77 strain), 1b (Con1 strain), and 2a (JFH-1 strain), which are Huh7 human hepatoma cell lines that contains an HCV replicon.
Briefly, the replicon cells are plated at 5,000 cells/well into 96-well plates that are dedicated for the analysis of cell numbers (cytotoxicity) or antiviral activity. On the following day, samples are diluted with assay media and added to the appropriate wells. Cells are processed 72 hours later when the cells are still sub-confluent. […] The concentration of drug that reduces cell viability is assessed by the fluorometric CytoTox-1 cell proliferation assay (Promega), (expressed as cell numbers). […] Where applicable EC50 (concentration inhibiting HCV replicon by 50%), EC90 (concentration inhibiting HCV replicon by 90%), CC50 (concentration decreasing cell viability by 50%), CC90 (concentration decreasing cell viability by 90%) and SI (selectivity indices: CC50/EC50 and CC90/EC90) values are derived.

[3] = tested on: HCV GT1b CON-1 replicon; test: HCV replicon assay (antiviral activity); assay type: cell-based, Hepatitis C virus; conditions: In vitro HCV replicon assay
Description: The HCV replicon antiviral evaluation assay examines the effects of compound at six serial dilutions. Human interferon alpha-2b (rIFNα-2b) and Sofosbuvir are included in each run as a positive control compound.

[4] = tested on: cell culture-derived HCV (HCVcc); test: microbe, parasite or virus in culture; assay type: cell-based, Hepatitis C virus
Description: as §1

CC(=O)Oc1cc2c(s1)CCN(C(C(=O)C1CC1)c1ccccc1F)C2.Cl (racemic) [Prasugrel, 5-[(1RS)-2-cyclopropyl-1-(2-fluorophenyl)-2-oxoethyl]-4,5,6,7-tetrahydrothieno[3,2-c]pyridin-2-yl acetate hydrochloride]
CC50 at 72 h [1]: > 100 µM
CC50 at 72 h [2]: 88.5 µM
pEC50 ([3]; Hepatitis C virus, GT1B, concentration inhibiting HCV replicon by 50%, 72 hours): 4.33
Selectivity index ([3]; CC50/EC50): 1.88
pEC50 ([4]; Hepatitis C virus, 72 h): 5.01
Selectivity index ([4]; In vitro HCVcc assay, CC50/EC50): >10.3
